Where “and” joins values, the source holds several entries; their conditions need not be identical. Equal values may be shown once. Read-outs that look alike come from different tables or passages of the source. [nps] = N3'→P5' thiophosphoramidate linkage; {Palm} = palmitoyl lipid
How the values were obtained:
[1] = system: RBC transfusion-dependent patients with IPSS low or intermediate-1 risk MDS; experiment: Phase 3 trial: hematologic improvement-erythroid (HI-E) and hemoglobin; type: in vivo, human
Source text: (§1) The primary end point was rate of RBC-TI for 8 consecutive weeks or longer. Key secondary end points included rate of 24-week TI, duration of TI, and the rate of hematologic response (hematologic improvement-erythroid [HI-E], based on modified International Working Group [IWG] 2006 criteria, and HI-E per revised IWG 2018). Additional secondary end points included relative change in number of RBC transfusions received by patients, relative change in hemoglobin, and safety. The changes in mutational status and in patient-reported fatigue over time (assessed by the Functional Assessment of Chronic Illness Therapy [FACIT] Fatigue Scale) were exploratory end points. Subgroup analyses were performed including baseline presence or absence of RS, prior RBC transfusion burden (≥4 to ≤6 or >6 RBC units/8-weeks during a 16-week period prior to randomization), and low or intermediate-1 IPSS risk categories. Subgroup analyses were also performed, including baseline mutation status as well as telomerase activity (TA), telomere lengths (TL), and human telomerase reverse transcriptase (hTERT) levels. Peripheral blood hematology, bone marrow evaluation, mutation assessment, and cytogenetic evaluation were performed centrally and responses assessed by an independent review committee (IRC). Rate of 1-year RBC-TI was reported as a post hoc analysis.
Key Secondary End Point Rate of hematologic improvement, including HI-E: per modified IWG 2006.
Changes over time in transfusion units and hemoglobin levels were compared by a mixed model for repeated measures with weeks since randomization, prior transfusion burden, minimum hemoglobin in the 8 weeks prior to first dose (for hemoglobin), and treatment arm as the independent variables with autoregressive moving average covariance structure.

[2] = system: patients with LR-MDS; experiment: Patient-reported fatigue (FACIT Fatigue Scale); type: in vivo, human; details: PRO population
Source text: To measure patient-reported fatigue, data were collected using the validated Functional Assessment of Chronic Illness Therapy (FACIT) Scale and analyzed in all randomized patients with available fatigue data at baseline (PRO population). The FACIT is a 13-item questionnaire measuring fatigue during daily activity. Proportion of sustained, meaningful deterioration/improvement was defined as percentage of pts with ≥3-point decrease/increase on the FACIT Fatigue Scale (0-52) for ≥2 consecutive treatment cycles. Additionally, time-to-deterioration/improvement was estimated by Kaplan-Meier analysis. Sensitivity analyses were performed in the intent-to-treat population and with alternate definitions of meaningful deterioration.
Exploratory End Point Patient-Reported Fatigue: Proportion of sustained meaningful deterioration/improvement was defined as percentage of patients with ≥3-point decrease/increase on the Functional Assessment of Chronic Illness Therapy (FACIT) Fatigue Scale (0-52) for ≥2 consecutive treatment cycles.
Meaningful improvement in FACIT Fatigue: Psychometric supportive evidence for the use of the FACIT Fatigue in the context of LR-MDS confirms the previously published threshold of a 3-point change for meaningful within-patient change for the FACIT Fatigue.

[3] = system: RBC transfusion-dependent patients with IPSS low or intermediate-1 risk MDS
[4] = system: patients with baseline cytogenetic abnormality; experiment: Phase 3 trial: cytogenetic response per IWG 2006; type: in vivo, human
Source text: as §1
As noted above, patients with heavily RBC-TD-ESA relapsed/refractory or ineligible non-del(5q) LR-MDS naive to lenalidomide and hypomethylating agents (len/HMA) received 2-hr infusion of imetelstat 7.5 mg/kg or placebo every 4 weeks. An independent review committee assessed abnormal cytogenetic profiles of bone marrow samples taken pre- and every 24 weeks post-treatment to assess cytogenetic response of complete or partial remission. Of the 178 randomized patients, 22.0% in the imetelstat group and 21.7% in the placebo group had baseline cytogenetic abnormalities and post-treatment samples.

[5] = by lab assessment, listed as imetelstat
[6] = 26 patients with baseline abnormality
[7] = ≥1-year TI responders with baseline abnormality (7)

## Imetelstat: first-in-class telomerase inhibitor; synthetic lipid-conjugated 13-mer oligonucleotide N3′→P5′-thiophosphoramidate (TAGGGTTAGACAA; all [nps], 5' {Palm}, sugars by position and methylation of C not given here)
[1]; 8-week TI responders
  Median hemoglobin peak: 11.3 g/dL
[1]; 8-week TI responders, during TI period
  Median hemoglobin increase from pretreatment to peak: 3.55 g/dL and 3.6 g/dL
[1]; HTB subjects
  Major HI-E response, % difference vs placebo: 30.9%
  Minor HI-E response, % difference vs placebo: 34.8%
[1]; HTB subjects (97)
  Major HI-E response (16-week RBC-TI), patients: 30 No. of patients
  Minor HI-E response (50% RBC units reduction in 16 weeks), patients: 43 No. of patients
[1]; LTB subjects
  HI-E response (16-week RBC-TI), % difference vs placebo: 11.1%
[1]; LTB subjects (21)
  HI-E response (16-week RBC-TI), patients: 7 No. of patients
[1]; N=118
  HI-E per IWG 2006, patients: 75 n
  HI-E per IWG 2018, patients: 50 n
  Increase in hemoglobin ≥1.5 g/dL for ≥8 wk, patients: 40 n
  Transfusion reduction by 50%/16 weeks rate: 43.2%
  Transfusion reduction by 50%/16 weeks, patients: 51 n
  Transfusion reduction by ≥4 units/8 wk, patients: 71 n
[1]; N=118, listed as imetelstat
  HI-E per IWG 2018 rate: 42% and 42.4%
  Increase in hemoglobin ≥1.5 g/dL for ≥8 wk rate: 34%
[1]; in vivo
  HI-E IWG 2006, % difference vs placebo: 11.9%,
  HI-E IWG 2018, % difference vs placebo: 29.0%,
  Increase in hemoglobin ≥1.5 g/dL for ≥8 wk, % difference vs placebo: 23.9%
  Transfusion reduction by ≥4 units/8 wk, % difference vs placebo: 10.2%,
[1]; ≥1-year TI responders
  Median increase in hemoglobin during the longest TI interval: 5.2 g/dL and 5.18 g/dL
[2]
  HR, time to first sustained meaningful improvement in fatigue vs placebo: 1.34
  Median time to first sustained, meaningful improvement in fatigue: 28.3 weeks
[2]; 118 patients
  Patients with any episode of sustained, meaningful deterioration in fatigue: 43.2%
  Patients with sustained, meaningful improvement in fatigue: 50.0%
[3]; Cycle 10-12 (N=53)
  Thrombocytopenia, maximum postbaseline CTCAE Grade 4: 0 No. of Patients
[3]; N=118
  ALP abnormality, Grade 3-4: 0 No. of patients
  Serious TEAE: Abscess limb: 0 No.
[3]; N=118, listed as imetelstat
  Patients with any dose reduction: 49%
  Withdrawal TEAE: Neutropenia: 5%
  Withdrawal TEAE: Thrombocytopenia: 3%
[3]; TEAE, N=118
  Asthenia, Grade 3-4: 0 No. of patients
  Constipation, Grade 3-4: 0 No. of patients
  Edema peripheral, Grade 3-4: 0 No. of patients
[3]; by lab assessment
  G3/4 Neutropenia events: 279 no. of events
  G3/4 Neutropenia median duration: 1.86 Weeks
  G3/4 Thrombocytopenia events: 212 no. of events
  G3/4 Thrombocytopenia median duration: 1.43 Weeks
[3]; [5]
  G3/4 Neutropenia median duration: 1.9 Weeks
  G3/4 Thrombocytopenia median duration: 1.4 Weeks
[3]; in vivo
  Dose delays due to neutropenia: 50.8%
  Dose delays due to thrombocytopenia: 46.6%
  Dose reductions due to neutropenia: 33.1%
  Dose reductions due to thrombocytopenia: 22.9%
  Patients with cytopenias reversible to Grade ≤2 within 4 weeks: more than 80%
[3]; n=118
  Discontinued: Progressive disease: 6%
[3]; patients with TI ≥1 year
  Grade 3-4 neutropenia: 95%
  Grade 3-4 neutropenia, patients: 20 patients
  Grade 3-4 thrombocytopenia: 67%
  Grade 3-4 thrombocytopenia, patients: 14 patients
  Grade 3/4 neutropenia events, mean (SD) duration: 1.78 (1.58) weeks
  Grade 3/4 neutropenia reversible to grade ≤2 within 4 weeks: 81%
  Grade 3/4 thrombocytopenia events, mean (SD) duration: 2.25 (2.48) weeks
  Grade 3/4 thrombocytopenia reversible to grade ≤2 within 4 weeks: 89%
[3]; resolved to ≤ Grade 2
  G3/4 Neutropenia resolved <4 weeks: 81%
  G3/4 Thrombocytopenia resolved <4 weeks: 86%
[4]; [6]
  Cytogenetic CR or PR: (35) %
  Cytogenetic CR or PR, patients: 9 N
  Cytogenetic complete response (CR): (19) %
  Cytogenetic complete response (CR), patients: 5 N
  Cytogenetic partial response (PR): (15) %
  Cytogenetic partial response (PR), patients: 4 N
  Cytogenetic response not evaluable: (46) %
  Cytogenetic response not evaluable, patients: 12 N
  Does not meet cytogenetic CR or PR criteria: (19) %
  Does not meet cytogenetic CR or PR criteria, patients: 5 N
[4]; 26 patients with baseline abnormality, listed as imetelstat
  Cytogenetic CR or PR: 35% and 34.6%
[4]; in vivo
  Cytogenetic CR or PR, % difference vs placebo: 19% (−16, 44)
[4]; [7]
  Did not meet the response criteria, patients: 1 patient
  cCR: 57%
  cCR, patients: 4 patients
  cPR: 29%
  cPR, patients: 2 patients

— patent US20240285773A1, “METHODS OF TREATING MYELODYSPLASTIC SYNDROME AND MONITORING THE TREATMENT” (Geron Corporation, priority 2023, published 2024)
